The structures appear in SMILES notation.

In test [1] the target is T1, PRMT5/MEP50 complex (Homo sapiens (Human), UniProt O14744). Description: PRMT5:MEP50 HotSpot Assay. Type of test: biochemical. The conditions noted are these: read-out: IC50 + 2 μM MTA, full-length histone H2A, presence of 2 μM MTA. Here is the method: The assay uses recombinant full-length histone H2A as the PRMT5 substrate. Enzymatic transfer of the tritiated methyl group from S-adenosyl-L-[methyl-3H]methionine to the histone H2A protein generated a radiolabeled histone […] in a scintillation counter to determine the activity of PRMT5 enzyme in the presence and absence of compound. […] Briefly, compounds of the present invention were solubilized in 100% DMSO at a highest concentration of 10 mM. […] Control samples lacking compound, PRMT5/MEP50 complex or various reaction components also were prepared and processed in parallel with compound test samples. SAH was used as a positive control for assay validation. To measure PRMT5 inhibitory activity. 1 nM PRMT5/MEP50 complex (Reaction Biology Corporation) was preincubated with test compound in assay buffer containing 5 μM full-length histone H2A for 20 min at room temperature. The enzymatic reaction was initiated by adding 1 μM tritiated S-adenosyl methionine (final concentration) and the reaction was allowed to proceed for 60 min. The reaction was stopped and transferred to filter paper for detection. The amount of tritiated H2A in each sample was determined using a scintillation counter.

In test [2] the target is recombinant human dual expressed Avi PRMT5/His-MEP50 protein (Homo sapiens (Human), UniProt O14744). Description: HTRF binding assay in presence of MTA. The conditions noted are these: 30 μM MTA. An outline of the steps: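 HTRF tracer-displacement binding using human Avi-PRMT5 (2-637)/His-MEP50 (2-342), baculovirus-expressed, with 30 μM MTA and 5 nM in-house tracer in 25 mM ADA pH 7.2, 1 mM TCEP, 50 mM NaCl, 0.002% Tween. Overnight at 2-8° C, then 0.5 nM anti-His-Tb 1 hr RT; 665/620 ratio ×10000.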

Test [3] deals with PRMT5•MTA (biotinylated PRMT5-MEP50) (Homo sapiens (Human), UniProt O14744). In words: SPR binding assay, MTA running buffer. The settings on record: 20 μM MTA running buffer. As to the method: (§1) SPR screening was performed in MTA running buffer (25 mM Bicine pH 7.6, 100 mM NaCl, 1 mM TCEP, 20 μM MTA, 0.05% Tween-20 and 2% DMSO). The biotinylated PRMT5-MEP50 surface was equilibrated with MTA running buffer for 12 hours prior to the start. […] Subsequently, compound titration was repeated in SAM-running buffer (25 mM Bicine pH 7.6, 100 mM NaCl, 1 mM TCEP, 20 μM SAM, 0.05% Tween-20, and 2% DMSO). […] After double referencing, the steady-state response was extracted for each fragment concentration and was fit to the Langmuir isotherm equation to determine the equilibrium dissociation constant (KD).
(In general: SPR reads the build-up and loss of mass on a sensor chip optically.)

In test [4] the target is PRMT5•SAM (biotinylated PRMT5-MEP50) (Homo sapiens (Human), UniProt O14744). In words: SPR binding assay, SAM running buffer. The conditions noted are these: 20 μM SAM running buffer. As to the method:
as §1

Test [5] addresses T1, PRMT5/MEP50 complex. In words: PRMT5:MEP50 FlashPlate Assay. The test is classed as biochemical. Here is the method: The PRMT5 inhibitory activity of compounds of the present invention was determined using a PRMT5:MEP50 FlashPlate Assay (Reaction Biology Corporation).
The assay uses purified human, PRMT5 enzyme to convert S-adenosyl-L-[methyl-^3H]methionine plus histone H4 L-arginine to S-adenosyl-L-homocysteine plus histone H4 [methyl-^3H]-L-arginine. The assay was carried out using Streptavidin-coated FlashPlates (Perkin Elmer), which contained a scintillant embedded in the plastic of the plate. The histone H4 peptide substrate was conjugated with biotin, which binds to the streptavidin-coated well of the plate, placing the H4 peptide in close proximity to the side well and the scintillant. The transfer of the tritiated methyl group from S-adenosyl-L-[methyl-^3H]methionine to the bound histone H4 peptide generated a radiolabeled histone H4, which was quantitated by measuring in a scintillation counter to determine the activity of PRMT5 enzyme in the presence and absence of compound. […] Briefly, compounds of the present invention were solubilized in 100% DMSO at a highest concentration of 10 mM. For IC, determinations, the initial starting concentration for the serial dilutions of each compound was 50 μM. Control samples lacking compound, PRMT5/MEP50 complex or various reaction components also were prepared and processed in parallel with compound test samples. SAH was used as a positive control for assay validation. To measure PRMT5 inhibitory activity, 3 nM PRMT5/MEP50 complex (Reaction Biology Corporation) was preincubated with test compound in assay buffer containing 40 nM histone H4 peptide (amino acids 1-15)-Biotin conjugate for 20 min at room temperature. The enzymatic reaction was initiated by adding 1 μM tritiated S-adenosyl methionine (final concentration) and the reaction is allowed to proceed for 20 min. The reaction was stopped and the amount of bound, tritiated H4 peptide in each sample was determined using a scintillation counter. The IC50 value for each compound was calculated from each 10-point dose-response curve for samples plus and minus MTA using GraphPad Prism software and the results for exemplary compounds of Formula (I) is shown in Table 9a.

Setting [6] is: histone H4 peptide, absence of MTA, read-out: IC50.
Where [7] appears, read: read-out: IC50 + 2 μM MTA, histone H4 peptide, presence of 2 μM MTA.

recombinant human dual expressed Avi PRMT5/His-MEP50 protein, sequence (O14744 2-637): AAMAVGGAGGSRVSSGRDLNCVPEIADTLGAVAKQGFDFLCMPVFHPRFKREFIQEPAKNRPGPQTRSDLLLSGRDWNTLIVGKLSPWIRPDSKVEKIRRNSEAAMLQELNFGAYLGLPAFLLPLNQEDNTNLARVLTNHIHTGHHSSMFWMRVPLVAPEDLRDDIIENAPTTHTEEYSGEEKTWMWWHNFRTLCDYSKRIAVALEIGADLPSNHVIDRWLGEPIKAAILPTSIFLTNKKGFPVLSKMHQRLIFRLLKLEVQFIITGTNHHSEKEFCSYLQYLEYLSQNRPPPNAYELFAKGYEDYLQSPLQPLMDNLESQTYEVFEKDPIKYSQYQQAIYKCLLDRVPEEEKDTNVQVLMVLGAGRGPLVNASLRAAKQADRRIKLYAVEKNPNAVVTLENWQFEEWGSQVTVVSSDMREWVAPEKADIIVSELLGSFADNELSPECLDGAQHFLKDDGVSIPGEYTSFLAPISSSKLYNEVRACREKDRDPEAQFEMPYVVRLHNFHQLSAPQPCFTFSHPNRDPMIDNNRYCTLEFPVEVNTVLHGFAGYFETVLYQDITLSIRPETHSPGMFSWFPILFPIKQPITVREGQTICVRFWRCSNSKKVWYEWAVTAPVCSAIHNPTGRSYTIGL
recombinant human dual expressed Avi PRMT5/His-MEP50 protein, sequence (Q9BQA1 2-342 partner): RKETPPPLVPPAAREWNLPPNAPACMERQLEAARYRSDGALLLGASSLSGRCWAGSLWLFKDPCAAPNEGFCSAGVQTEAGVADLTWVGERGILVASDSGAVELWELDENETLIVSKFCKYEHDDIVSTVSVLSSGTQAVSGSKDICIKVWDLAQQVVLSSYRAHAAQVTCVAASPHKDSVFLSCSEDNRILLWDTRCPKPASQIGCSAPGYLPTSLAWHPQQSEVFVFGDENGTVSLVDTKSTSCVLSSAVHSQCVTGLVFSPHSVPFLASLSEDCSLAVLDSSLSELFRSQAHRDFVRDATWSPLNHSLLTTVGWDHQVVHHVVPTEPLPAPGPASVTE
PRMT5•SAM (biotinylated PRMT5-MEP50), sequence (O14744 whole entry): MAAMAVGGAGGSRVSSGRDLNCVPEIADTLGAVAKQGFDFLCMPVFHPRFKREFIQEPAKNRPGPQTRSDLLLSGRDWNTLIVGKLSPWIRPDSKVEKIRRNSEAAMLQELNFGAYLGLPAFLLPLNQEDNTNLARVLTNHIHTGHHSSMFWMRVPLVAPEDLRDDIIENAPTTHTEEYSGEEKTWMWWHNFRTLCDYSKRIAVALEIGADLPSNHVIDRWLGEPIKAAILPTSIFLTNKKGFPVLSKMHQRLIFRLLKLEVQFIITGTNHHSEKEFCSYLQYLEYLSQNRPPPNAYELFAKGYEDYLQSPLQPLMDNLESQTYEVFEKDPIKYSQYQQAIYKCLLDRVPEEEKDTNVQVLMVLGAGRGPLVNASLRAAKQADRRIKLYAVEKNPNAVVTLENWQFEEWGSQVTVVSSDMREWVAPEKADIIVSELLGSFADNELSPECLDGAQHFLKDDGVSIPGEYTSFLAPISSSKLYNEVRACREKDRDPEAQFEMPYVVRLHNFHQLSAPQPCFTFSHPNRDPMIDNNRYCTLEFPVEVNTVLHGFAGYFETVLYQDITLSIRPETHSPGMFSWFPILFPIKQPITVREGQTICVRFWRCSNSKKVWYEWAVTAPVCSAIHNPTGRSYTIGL
PRMT5•SAM (biotinylated PRMT5-MEP50), sequence (Q9BQA1 whole entry partner): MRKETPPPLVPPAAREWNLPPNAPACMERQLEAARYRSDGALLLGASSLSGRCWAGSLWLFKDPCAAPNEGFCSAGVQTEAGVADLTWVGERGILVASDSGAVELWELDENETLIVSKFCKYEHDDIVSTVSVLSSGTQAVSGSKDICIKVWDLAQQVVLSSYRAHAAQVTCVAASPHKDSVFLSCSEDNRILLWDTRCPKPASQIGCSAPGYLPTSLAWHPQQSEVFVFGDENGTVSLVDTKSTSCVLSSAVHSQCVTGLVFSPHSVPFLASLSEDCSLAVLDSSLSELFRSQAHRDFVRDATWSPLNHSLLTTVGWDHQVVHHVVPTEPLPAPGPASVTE
PRMT5•MTA (biotinylated PRMT5-MEP50), sequence (O14744 whole entry, the tested form may be a part): as the sequence (O14744 whole entry) above
PRMT5•MTA (biotinylated PRMT5-MEP50), sequence (Q9BQA1 whole entry partner, the tested form may be a part): as the sequence (Q9BQA1 whole entry partner) above
T1 sequence (O14744 whole entry): as the sequence (O14744 whole entry) above
T1 sequence (Q9BQA1 whole entry partner): as the sequence (Q9BQA1 whole entry partner) above

A word on the IC50: it is the point on the concentration scale where inhibition reaches its midpoint. For the molecule `Cc1cc2[nH]c(C(=O)N(Cc3ccc(C(F)(F)F)cn3)C3CCCc4nccnc43)cc2nc1N` (stereo in doubt) [Example 10-4, (R)-5-amino-6-methyl-N-(5,6,7,8-tetrahydroquinoxalin-5-yl)-N-((5-(trifluoromethyl)pyridin-2-yl)methyl)-1H-pyrrolo[3,2-b]pyridine-2-carboxamide], at PRMT5/MEP50 complex [1], the IC50 was 379 nM.

The term Kd denotes the constant that tells how readily two partners part at equilibrium. High values mean lower affinity, low ones higher affinity. Take `CC(=O)N(Cc1cnc2c(C)cc(N)nc2c1)c1ccc2ccccc2c1C#N` [Example 7-5, N-[(6-amino-8-methyl-1,5-naphthyridin-3-yl)methyl]-N-(1-cyano-2-naphthyl)acetamide]: the IC50 came out at 3 nM in test [2], 6.46 µM on PRMT5/MEP50 complex [5] (setting [6]), 0.0203 µM at PRMT5/MEP50 complex [5] (setting [7]) and 1340 nM on PRMT5/MEP50 complex [1]. For the same molecule, the Kd in test [3] and in test [4] was 2 nM each time.

As to `Cc1cc2[nH]c(C(=O)N(Cc3ccc(C(F)(F)F)cn3)[C@H]3CCCc4nccnc43)cc2nc1N` [Example 10-3, (S)-5-amino-6-methyl-N-(5,6,7,8-tetrahydroquinoxalin-5-yl)-N-((5-(trifluoromethyl)pyridin-2-yl)methyl)-1H-pyrrolo[3,2-b]pyridine-2-carboxamide], the IC50 on PRMT5/MEP50 complex [1] was determined as 10300 nM.

For `Cc1cc2ncc(C(=O)N(Cc3ccc(C(F)(F)F)cn3)[C@H]3CCCc4nccnc43)cc2nc1N` [Example 10-5, (S)-6-amino-7-methyl-N-(5,6,7,8-tetrahydroquinoxalin-5-yl)-N-((5-(trifluoromethyl)pyridin-2-yl)methyl)-1,5-naphthyridine-3-carboxamide], on PRMT5/MEP50 complex [1], the IC50 was 14700 nM.

For `Cc1cc2ncc(C(=O)N(Cc3ccc(C(F)(F)F)cn3)[C@@H]3CCCc4nccnc43)cc2nc1N` [Example 10-6, (R)-6-amino-7-methyl-N-(5,6,7,8-tetrahydroquinoxalin-5-yl)-N-((5-(trifluoromethyl)pyridin-2-yl)methyl)-1,5-naphthyridine-3-carboxamide], at PRMT5/MEP50 complex [1], the IC50 came to 925 nM.

Turning to `Cc1cc2ncc(C(=O)N(Cc3ccc(Br)cn3)[C@@H](C)c3ncccn3)cc2nc1N` [Example 10-7, (S)-6-amino-N-((5-bromopyridin-2-yl)methyl)-7-methyl-N-(1-(pyrimidin-2-yl)ethyl)-1,5-naphthyridine-3-carboxamide], the IC50 at PRMT5/MEP50 complex [1] came out at 16200 nM.

On to `Cc1cc2ncc(C(=O)N(Cc3ccc(Br)cn3)[C@H](C)c3ncccn3)cc2nc1N` [Example 10-8, (R)-6-amino-N-((5-bromopyridin-2-yl)methyl)-7-methyl-N-(1-(pyrimidin-2-yl)ethyl)-1,5-naphthyridine-3-carboxamide], for which the 50% inhibitory concentration (IC50) on PRMT5/MEP50 complex [1] stood at 60.2 nM.

In the case of `Cc1cc(N)nc2cc(C(=O)N(Cc3ccc(Br)cn3)[C@@H](C)c3ncccn3)cnc12` [Example 10-11, 6-amino-N-[(5-bromo-2-pyridyl)methyl]-8-methyl-N-[(1S)-1-pyrimidin-2-ylethyl]-1,5-naphthyridine-3-carboxamide], the IC50 at PRMT5/MEP50 complex [1] amounted to 10400 nM.

Regarding `Cc1cc2[nH]c(N3CC(=O)N(C)C3=O)cc2nc1N` [Example 13-4, 1-(5-amino-6-methyl-1H-pyrrolo[3,2-b]pyridin-2-yl)-3-methyl-imidazolidine-2,4-dione], the values for the IC50 (in test [2]; at PRMT5/MEP50 complex [5] (setting [6]); on PRMT5/MEP50 complex [5] (setting [7])) were 50600 nM, > 300 µM and > 300 µM, respectively. In addition, the Kd in test [3] was 10700 nM; in test [4] it was 30900 nM.

As for `Cc1cc2[nH]c(CN3C(=O)c4ccccc4C3=O)cc2nc1N` [Example 14-1, 2-((5-amino-6-methyl-1H-pyrrolo[3,2-b]pyridin-2-yl)methyl)isoindoline-1,3-dione], the IC50 was 7 nM in test [2], 10.1 µM on PRMT5/MEP50 complex [5] (setting [6]), 0.0121 µM at PRMT5/MEP50 complex [5] (setting [7]) and 626 nM at PRMT5/MEP50 complex [1]. For the same molecule, the values for the Kd in test [3] and in test [4] were 1 nM and 6 nM, respectively.

Regarding `CC(=O)N(Cc1cc2nc(N)c(C)cc2[nH]1)c1ccc2ccccc2c1C#N` [Example 14-2, N-[(5-amino-6-methyl-1H-pyrrolo[3,2-b]pyridin-2-yl)methyl]-N—(I-cyano-2-naphthyl)acetamide], the IC50 in test [2] amounted to 2 nM; at PRMT5/MEP50 complex [5] (setting [6]) it was 0.798 µM; on PRMT5/MEP50 complex [5] (setting [7]), 0.00172 µM; on PRMT5/MEP50 complex [1], 553 nM. For the same molecule, the Kd in test [3] and in test [4] was 1 nM in each case.

Turning to `CC(=O)NCc1cc2nc(N)c(C)cc2[nH]1` [Example 14-3, N-((5-amino-6-methyl-1H-pyrrolo[3,2-b]pyridin-2-yl)methyl)acetamide], the IC50 worked out at 102 nM in test [2], 271 µM on PRMT5/MEP50 complex [5] (setting [6]) and 0.138 µM on PRMT5/MEP50 complex [5] (setting [7]). Besides, the Kd in test [3] came to 12 nM; in test [4] it was 38 nM.

Consider `CC(=O)N(C)Cc1cc2nc(N)c(C)cc2[nH]1` [Example 14-4, N-((5-amino-6-methyl-1H-pyrrolo[3,2-b]pyridin-2-yl)methyl)-N-methylacetamide], for which the figures for the IC50 (in test [2]; at PRMT5/MEP50 complex [5] (setting [6]); on PRMT5/MEP50 complex [5] (setting [7])) were 124 nM, 170 µM and 1.24 µM, respectively. Further, the dissociation constant (Kd) is 17 nM in test [3] and 80 nM in test [4].

On to `Cc1cc2[nH]c(C(C#N)N3C(=O)c4ccccc4C3=O)cc2nc1N` (stereo not drawn) [Example 14-5, 2-(5-amino-6-methyl-1H-pyrrolo[3,2-b]pyridin-2-yl)-2-(1,3-dioxoisoindolin-2-yl)acetonitrile], for which the IC50 in test [2] was 37 nM; on PRMT5/MEP50 complex [5] (setting [6]) it was 245 µM; on PRMT5/MEP50 complex [5] (setting [7]), 4.26 µM. Moreover, the Kd in test [3] was found to be 203 nM; in test [4], 727 nM.

With `Cc1cc2[nH]c(CN3CCc4ccccc4C3=O)cc2nc1N` [Example 14-6, 2-[(5-amino-6-methyl-1H-pyrrolo[3,2-b]pyridin-2-yl)methyl]-3,4-dihydroisoquinolin-1-one], the IC50 in test [2] is 7 nM; on PRMT5/MEP50 complex [5] (setting [6]) it was 43.2 µM; at PRMT5/MEP50 complex [5] (setting [7]) it was 0.504 µM. Further, the Kd in test [3] stood at 1 nM; in test [4] it was 6 nM.

As to `Cc1cc2[nH]c(Cn3ccc4ccccc4c3=O)cc2nc1N` [Example 14-7, 2-[(5-amino-6-methyl-1H-pyrrolo[3,2-b]pyridin-2-yl)methyl]isoquinolin-1-one], the results for the IC50 (in test [2]; at PRMT5/MEP50 complex [5] (setting [6]); on PRMT5/MEP50 complex [5] (setting [7])) were 8 nM, 36.7 µM and 0.474 µM, respectively. For the same molecule, the Kd turned out to be 2 nM in test [3] and 6 nM in test [4].

For `Cc1cc2sc(CNC(=O)c3ccccc3)cc2nc1N` [Example 16-1, N-[(5-amino-6-methyl-thieno[3,2-b]pyridin-2-yl)methyl]benzamide], the figures for the IC50 (in test [2]; at PRMT5/MEP50 complex [5] (setting [6]); at PRMT5/MEP50 complex [5] (setting [7])) were 163 nM, > 300 µM and 18.2 µM, respectively. The values for the Kd in test [3] and in test [4] were 72 nM and 1350 nM, respectively.

The values above are taken from patent publication US20240368153A1, “Aminopyridine-based MTA-Cooperative PRMT5 Inhibitors” (Mirati Therapeutics, Inc., priority 2021, published 2024).
